Two compounds from patent US11801249B1, “Broad-spectrum antitrypanosomal compounds” (KING FAISAL UNIVERSITY, priority 2023, dated 2023) can be followed below.

Values after ≈ are worked out from the molar mass of the structure shown.

Experiment in all cases: Antitrypanosomal assay (ATP-based luciferase viability)
Common to all, as to format: cell-based

The subject of experiment [1] is T. b. rhodesiense (Tbr) IL1501. Particulars: Trypanosoma brucei, mean ± SD; for IC50: 72 h, TbrIL1501, three days; for inhibition at 0.25 µg/mL: TbrIL1501, 0.25 μg/ml; for inhibition at 0.25 µg/mL / inhibition at 25 µg/mL: read-out: Inhibition rate; for inhibition at 25 µg/mL: TbrIL1501, 25 μg/ml. The text has this: (§1) Six trypanosome species namely T. b. brucei (Tbb) GuTat3.1, T. b. rhodesiense (Tbr) IL1501, T. b. gambiense (Tbg) IL1922, T. evansi (Tev) Tansui, T. equiperdum (Teq) IVM-t1 and T. congolense (Tc) IL3000 were cultivated using HMI-9 medium and used in the study. Following the procedures reported in Suganuma et al. (2014): “Establishment of ATP-based luciferase viability assay in 96-well plate for Trypanosoma congolense”, J Vet Med Sci 76, 1437-41, the trypanocidal activity of the two compounds discussed herein was assessed at 25 μg/ml or […]. […] The IC50 of the compounds against six trypanosome species was determined using serial dilution in a 96-well plate (Optical bottom plate, ThermoFisher SCIENTIFIC, MA, USA). After three days, 25 μL of CellTiter-GIo Luminescent cell viability reagent (Promega Corporation, WI, USA) was aliquoted into each well and luminosity was measured with a GloMax plate reader (Promega Corporation, WI, USA).
(§2) At first, the compounds were assayed at high and low concentrations of […], respectively (Table 3).
(§3) Given the promising initial antitrypanosomal action of the compounds, the IC50 was measured in the presence of several concentrations of the compound.

Experiment [2] relates to T. b. brucei (Tbb) GuTat3.1. To be noted: Trypanosoma brucei, TbbGUTat3.1, mean ± SD; for IC50: 72 h, three days; for inhibition at 0.25 µg/mL: 0.25 μg/ml; for inhibition at 0.25 µg/mL / inhibition at 25 µg/mL: read-out: Inhibition rate; for inhibition at 25 µg/mL: 25 μg/ml.
Excerpt: as §1, §2, §3

For experiment [3], the system named is T. b. gambiense (Tbg) IL1922. To be noted: Trypanosoma brucei, mean ± SD; for IC50: 72 h, TbgIL1922, three days; for inhibition at 0.25 µg/mL: TbgIL1922, 0.25 μg/ml; for inhibition at 0.25 µg/mL / inhibition at 25 µg/mL: read-out: Inhibition rate; for inhibition at 25 µg/mL: TbgIL1922, 25 μg/ml.
Excerpt: as §1, §2, §3

Experiment [4] has as its system T. congolense (Tc) IL3000. Particulars: Trypanosoma congolense, TcIL3000, mean ± SD; for IC50: 72 h, three days; for inhibition at 0.25 µg/mL: 0.25 μg/ml; for inhibition at 0.25 µg/mL / inhibition at 25 µg/mL: read-out: Inhibition rate; for inhibition at 25 µg/mL: 25 μg/ml.
Excerpt: as §1, §2, §3

For a further experiment, the system named is T. evansi (Tev) Tansui. To be noted: Trypanosoma evansi, mean ± SD; for inhibition at 0.25 µg/mL: 0.25 μg/ml; for inhibition at 0.25 µg/mL / inhibition at 25 µg/mL: read-out: Inhibition rate; for inhibition at 25 µg/mL: 25 μg/ml; for IC50: 72 h, three days.
Excerpt: as §1, §2, §3

Experiment [5] has as its system T. equiperdum (Teq) IVM-t1. To be noted: Trypanosoma equiperdum, mean ± SD; for inhibition at 0.25 µg/mL: 0.25 μg/ml; for inhibition at 0.25 µg/mL / inhibition at 25 µg/mL: read-out: Inhibition rate; for inhibition at 25 µg/mL: 25 μg/ml; for IC50: 72 h, three days.
Excerpt: as §1, §2, §3

With `Fc1ccc(-c2cn[nH]c2C2CCCN(c3ncnc4[nH]cnc34)C2)cc1` (stereo not drawn) [Compound 2, 6-{3-[4-(4-fluorophenyl)-1H-pyrazol-5-yl]piperidin-1-yl}-9H-purine], the IC50 (commonly the concentration that inhibits the measured activity by half) turned out to be 4.65 ± 0.25 µg/mL (≈ 12.8 µM) in experiment [1]; 3.66 ± 0.77 µg/mL (≈ 10.1 µM) in experiment [2]; 3.11 ± 0.88 µg/mL (≈ 8.56 µM) in experiment [3]; 2.77 ± 0.57 µg/mL (≈ 7.62 µM) in experiment [4]; 9.26 ± 1.2 µg/mL (≈ 25.5 µM) in the experiment on T. evansi (Tev) Tansui; 9.12 ± 0.8 µg/mL (≈ 25.1 µM) in experiment [5]. Besides, the inhibition (in general, the change of the read-out against control, counted positive when it falls) at 0.25 µg/mL in experiment [1] was 11.3 ± 6.63%; in experiment [2] it was 13.9 ± 3.11%; in experiment [3], 1.82 ± 1.45%; in experiment [4], 8.09 ± 6.96%; in the experiment with T. evansi (Tev) Tansui, 6.14 ± 7.12%; in experiment [5] it was 5.2 ± 4.11%. Further, the inhibition at 25 µg/mL in experiment [1] was 98.64 ± 0.02%; in experiment [2] it was 99.03 ± 0.02%; in experiment [3], 98.21 ± 0.02%; in experiment [4], 98.01 ± 0.2%; in the experiment with T. evansi (Tev) Tansui, 98.7 ± 0.04%; in experiment [5] it was 98.62 ± 0.05%.

For the compound `Fc1ccc(-c2cn[nH]c2C2CCCN(c3ncnc4[nH]ccc34)C2)cc1` (stereo not drawn) [Compound 1, 4-{3-[4-(4-fluorophenyl)-1H-pyrazol-5-yl]piperidin-1-yl}-7H-pyrrolo[2,3-d]pyrimidine], the IC50 in experiment [1] stood at 5.56 ± 0.13 µg/mL (≈ 15.3 µM); in experiment [2], 3.53 ± 0.67 µg/mL (≈ 9.74 µM); in experiment [3], 3.51 ± 0.9 µg/mL (≈ 9.69 µM); in experiment [4], 2.65 ± 0.47 µg/mL (≈ 7.31 µM); in the experiment with T. evansi (Tev) Tansui, 13.3 ± 3.36 µg/mL (≈ 36.8 µM); in experiment [5], 10.3 ± 0.36 µg/mL (≈ 28.4 µM). Further, the inhibition at 0.25 µg/mL in experiment [1] came out at 15.9 ± 11.1%; in experiment [2], 13.2 ± 4.07%; in experiment [3] it was 2.82 ± 3.98%; in experiment [4], 8.85 ± 9.99%; in the experiment with T. evansi (Tev) Tansui, 9.14 ± 6.02%; in experiment [5] it was 4.26 ± 6.01%. Besides, the inhibition at 25 µg/mL in experiment [1] came out at 99.34 ± 0.01%; in experiment [2], 99.38 ± 0.02%; in experiment [3] it was 99.01 ± 0.01%; in experiment [4], 98.64 ± 0.16%; in the experiment with T. evansi (Tev) Tansui, 99.1 ± 0.46%; in experiment [5], 99.22 ± 0.01%.
